Experimental data published in PMC5688156, “The natural product carolacton inhibits folate-dependent C1 metabolism by targeting FolD/MTHFD” (Nature Communications, 2017).

Tests used:
ecFolD K54N = molecular target: T1, ecFolD K54N (Escherichia coli, UniProt P24186, K54N); experiment: ecFolD K54N mutant dehydrogenase (DH) enzyme assay; format: biochemical, E. coli
T1 construct: His-tag (TEV-cleavable, vector pHis-TEV); made in house; host or cells: E. coli BL21 (DE3)
Protocol: (§1) (6R,S)-5,10-Methylene-5,6,7,8-tetrahydrofolic acid ((6R,S)-5,10-CH2-THF) calcium salt and (6R,S)-5,10-Methenyl-5,6,7,8-tetrahydrofolic acid ((6R,S)-5,10-CH=THF) chloride were purchased from Schircks Laboratories (Bauma, Switzerland) and used as substrates for FolD dehydrogenase and cyclohydrolase enzyme assays, respectively. Only the R-isomer, which accounts for 50% of (6R,S)-5,10-CH2-THF and (6R,S)-5,10-CH=THF, respectively, is used by the enzyme. (6R,S)-5,10-CH2-THF was dissolved in N2-spargeled basic buffer (50 mM Tris-HCl (pH 8.0), 100 mM β-mercaptoethanol) as described by Varshney et al.[25]. (6R,S)-5,10-CH=THF was dissolved in DMSO as a 100 mM stock solution.
(§2) Because FolD is a bifunctional enzyme, dehydrogenase and cyclohydrolase activities were determined for FolD enzyme kinetics, respectively. The dehydrogenase activity of FolD was assayed for its substrate 5,10-CH2-THF and cofactor NADP^+ (in the case of MTHFD2, NAD^+ was used as the cofactor) based on monitoring the formation of 5,10-CH=THF, while the cyclohydrolase activity of FolD was determined for its substrate 5,10-CH=THF by monitoring the hydrolysis of […]. The enzyme kinetics for the dehydrogenase activity of all FolDs except hsMTHFD1_DC were determined at 30 °C in 50 mM Tris-HCl (pH 7.5), 30 mM β-mercaptoethanol. […]

hsMTHFD1_DC = molecular target: T2, hsMTHFD1_DC (Homo sapiens, UniProt P11586); experiment: hsMTHFD1_DC cyclohydrolase (CYH) enzyme assay; format: biochemical; conditions: hsMTHFD1 DC301
T2 construct: hsMTHFD1 DC301; His-tag (TEV-cleavable, vector pHis-TEV); made in house; host or cells: E. coli BL21 (DE3)
T2 sequence (P11586 2-291 limits assumed): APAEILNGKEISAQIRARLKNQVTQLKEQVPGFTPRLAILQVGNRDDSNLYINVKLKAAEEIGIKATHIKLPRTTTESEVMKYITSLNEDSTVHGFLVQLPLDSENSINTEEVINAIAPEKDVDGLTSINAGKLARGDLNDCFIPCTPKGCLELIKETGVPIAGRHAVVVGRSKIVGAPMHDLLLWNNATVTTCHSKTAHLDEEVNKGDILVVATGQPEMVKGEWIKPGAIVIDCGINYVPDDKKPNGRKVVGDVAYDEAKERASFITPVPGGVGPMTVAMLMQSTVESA
Protocol: as §1
Because FolD is a bifunctional enzyme, dehydrogenase and cyclohydrolase activities were determined for FolD enzyme kinetics, respectively. The dehydrogenase activity of FolD was assayed for its substrate 5,10-CH2-THF and cofactor NADP^+ (in the case of MTHFD2, NAD^+ was used as the cofactor) based on monitoring the formation of 5,10-CH=THF, while the cyclohydrolase activity of FolD was determined for its substrate 5,10-CH=THF by monitoring the hydrolysis of […]. The enzyme kinetics for the dehydrogenase activity of all FolDs except hsMTHFD1_DC were determined at 30 °C in 50 mM Tris-HCl (pH 7.5), 30 mM β-mercaptoethanol. The hsMTHFD1_DC dehydrogenase activity was measured in 25 mM MOPS (pH 7.3), 30 mM β-mercaptoethanol at 30 °C. […] To monitor the formation of 5,10-CH=THF, the absorbance of the reaction mixture was monitored at 350 nm in micro UV cuvettes (BRAND, Essex, Connecticut, USA). The concentration of 5,10-CH=THF produced in the reaction was determined using an extinction co-efficient of 0.0249 μM^−1 cm^−1. […] The consumption of 5,10-CH=THF was measured by recording the absorbance of the reactions at 355 nm using the TECAN Infinite 200 PRO equipped with a monochromator. […] The inhibition constants (K i) of carolacton on FolD were determined by measuring the apparent K m when adding certain amounts of carolacton to the enzyme reactions. […]

ecFolD Q98H = molecular target: T3, ecFolD Q98H (Escherichia coli, UniProt P24186, Q98H); experiment: ecFolD Q98H mutant dehydrogenase (DH) enzyme assay; format: biochemical, E. coli
T3 construct: His-tag (TEV-cleavable, vector pHis-TEV); made in house; host or cells: E. coli BL21 (DE3)
Protocol: as §1, §2

CO[C@H](CC(=O)O)[C@@H](C)C(=O)[C@H](C)/C=C(\C)[C@H]1OC(=O)[C@H](O)[C@H](O)/C=C/[C@H](C)CCC[C@@H]1C [carolacton]
sensitivity of residual DH activity to carolacton (ecFolD K54N): completely insensitive | IC50 (hsMTHFD1_DC; 5 nM enzyme, read-out: IC50, carolacton inhibition on CYH activity): 0.0194 µM | IC80 (hsMTHFD1_DC; 5 nM enzyme, read-out: IC80, carolacton inhibition on CYH activity): 0.0675 µM | Ki (hsMTHFD1_DC; vs 5,10-CH=THF, read-out: Ki (5,10-CH=THF), carolacton inhibition on CYH activity): 0.0206 µM | IC50 (ecFolD Q98H): 0.313 µM | IC80 (ecFolD Q98H; read-out: IC80, carolacton inhibition on DH activity): 1.93 µM
